The results in this text go back to BindingDB's records for doi:10.1021/acsmedchemlett.3c00236 (Smith, Gambrell & Russell, 2023).

As a reminder, the IC50 is the concentration at which inhibition is half-maximal.

This experiment in a line: Inhibition of NLRP3 in human THP-1 cells assessed as reduction in pyroptosis preincubated for 3 hrs followed by nigericin addition and measured after 1 hr by resazurin dye based microplate reader analysis. On the technique in general: Resazurin is reduced to fluorescent resorufin, in cell work by metabolically active cells.

Take `CCN1CCC[C@H](Nc2nc3nc(-c4c(C)cc(Cl)c(F)c4O)ccc3o2)C1`: the 50% inhibitory concentration (IC50) was 0.6 nM.
